The values that follow come from patent US20110160052A1, “Active Compound Combinations” (Bayer CropScience AG, priority 2007, published 2011).

Holding throughout (format): in vivo
In one test the test system is Nilaparvata lugens. Nature of the test: Nilaparvata lugens test (sprayed rice plants). The settings on record: mortality of hopper larvae on rice. How it is done: (§1) Solvent: 7 parts by weight of dimethylformamide Emulsifier: 2 parts by weight of alkylaryl polyglycolether
(§2) To produce a suitable preparation of active compound, 1 part by weight of active compound is mixed with the stated amount of solvent and emulsifier, and the concentrate is diluted with emulsifier-containing water to the desired concentration.
Rice plants (Oryza sativa) are treated by being sprayed with the preparation of the active compound at the desired concentration and are infested with larvae of the Brown plant hopper (Nilaparvata lugens) as long as the leaves are still moist.
After the specified period of time, the mortality in % is determined. 100% means that all the hopper larvae have been killed; 0% means that none of the hopper larvae have been killed.

In the next test the test system is Phaedon cochleariae. Nature of the test: Phaedon cochleariae test (sprayed cabbage leaves). To be noted: mortality of beetle larvae on cabbage leaves. How it is done: as §1, §2
Cabbage leaves (Brassica oleracea) are treated by being sprayed with the preparation of the active compound at the desired concentration and are infested with larvae of the mustard beetle (Phaedon cochleariae) as long as the leaves are still moist.
After the specified period of time, the mortality in % is determined. 100% means that all the beetle larvae have been killed; 0% means that none of the beetle larvae have been killed.

For another test, the system named is Spodoptera frugiperda. Nature of the test: Spodoptera frugiperda test (sprayed cabbage leaves). To be noted: mortality of caterpillars on cabbage leaves. How it is done: as §1, §2
Cabbage leaves (Brassica oleracea) are treated by being sprayed into the preparation of the active compound of the desired concentration and are infested with larvae of the fall army worm (Spodoptera frugiperda) as long as the leaves are still moist.
After the specified period of time, the mortality in % is determined. 100% means that all the caterpillars have been killed; 0% means that none of the caterpillars have been killed.

For test [1], the system named is Blumeria graminis f sp. hordei. The experiment in a line: Blumeria test (barley)/SAR 5d. The settings on record: 1000 ppm, inoculated 5 days after spraying, evaluated 7 days after inoculation. On the procedure: Solvent: 50 parts by weight of n,n-dimethylacetamid Emulsifier: 1 part by weight of alkylaryl polyglycol ether
To produce a suitable preparation of active compound, 1 part by weight of active compound or active compound combination is mixed with the stated amounts of solvent and emulsifier, and the concentrate is diluted with water to the desired concentration.
To test for systemic activated resistance, young plants are sprayed with the preparation of active compound or active compound combination at the stated rate of application. After the spray coating has dried on, the plants are placed in a greenhouse at a temperature of approximately 18° C. and a relative atmospheric humidity of approximately 80%.
5 days after spraying, the plants are dusted with spores of Blumeria graminis f sp. hordei. The plants then remain in a greenhouse at a temperature of approximately 18° C. and a relative atmospheric humidity of approximately 80% to promote the development of mildew pustules.
The test is evaluated 7 days after the inoculation, 1. and 2. leaf separated. 0% means an efficacy with corresponds to that of the control while an efficacy of 100% means that no disease is observed.

`CN/C(=N\[N+](=O)[O-])NCc1cnc(Cl)s1` [Clothianidin, clothianidin]: the “Efficacy in % after 3d” value with Nilaparvata lugens (0.032 ppm) is 55%; in the test with Nilaparvata lugens (0.8 ppm), 70%. The “Efficacy in % after 6d” value in the test on Phaedon cochleariae (0.16 ppm) worked out at 0%; in the test on Spodoptera frugiperda (8 ppm), 25%.

`CC[S+]([O-])c1c(C#N)nn(-c2c(Cl)cc(C(F)(F)F)cc2Cl)c1N` (stereo not shown) [Ethiprole, ethiprole]: in the test with Nilaparvata lugens (0.16 ppm), the “Efficacy in % after 3d” value is reported as 0%. For the same compound, the Efficacy in % in test [1] (1st leaf) and in test [1] (2nd leaf) was 22% in each case.

Take `N#Cc1nn(-c2c(Cl)cc(C(F)(F)F)cc2Cl)c(N)c1[S+]([O-])C(F)(F)F` (stereo not shown) [Fipronil, fipronil]: the “Efficacy in % after 3d” value in the test on Nilaparvata lugens (0.032 ppm) stood at 0%; in the test on Nilaparvata lugens (20 ppm) it was 70%. Besides, the entries for the “Efficacy in % after 6d” value in the test with Phaedon cochleariae (0.032 ppm) and with Spodoptera frugiperda (8 ppm) were 0% and 65%, respectively.

For `N#Cc1ccccc1NC(=O)c1snc(Cl)c1Cl` [Isotianil, 3,4-dichloro-N-(2-cyanophenyl)-5-isothiazolecarboxamide], the “Efficacy in % after 6d” value in the test with Spodoptera frugiperda (200 ppm) was found to be 0%.

Turning to `N#C/N=C1\SCCN1Cc1ccc(Cl)nc1` [Thiacloprid, thiacloprid], the “Efficacy in % after 3d” value in the test on Nilaparvata lugens (4 ppm) is recorded as 0%.
